Key:
Conditions in all cases: exposure time: 90 min
1516 [1] = donor line of iPSC-derived cardiomyocytes; experiment: POD (EC05) for decrease in beat frequency (negative chronotrope) vs vehicle; higher = less potent (higher point of departure)
In short: (§1)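 Cardiomyocytes derived from human iPSCs of 16 donors were grown 14 days in gelatin-coated 384-well plates, loaded 2 h with a fluorescent Ca2+ dye, then exposed for 90 min at 37 °C to final concentrations of 0.1, 1, 10 and 100 µM in 0.5% DMSO. A FLIPR Tetra recorded Ca2+ flux at 8 frames/s for 100 s before and after exposure. Points of departure for each donor were derived by hierarchical Bayesian Hill fitting of vehicle-normalised beat frequency, decay-to-rise ratio or peak frequency. The thresholds applied were a 5% change, or a 95% loss for peak frequency.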

1518 [2] = donor line of iPSC-derived cardiomyocytes; experiment: as above
In short: as §1

1392 [3] = donor line of iPSC-derived cardiomyocytes; experiment: as above
In short: as §1

1535 [4] = donor line of iPSC-derived cardiomyocytes; experiment: as above
In short: as §1

1565 [5] = donor line of iPSC-derived cardiomyocytes; experiment: as above
In short: as §1

1434 = donor line of iPSC-derived cardiomyocytes; experiment: POD (EC05) for increase in beat frequency (positive chronotrope) vs vehicle; higher = less potent (higher point of departure)
In short: as §1

1516 [6] = experiment: as above
In short: as §1

20084 = donor line of iPSC-derived cardiomyocytes; experiment: as above
In short: as §1

20032 = donor line of iPSC-derived cardiomyocytes; experiment: as above
In short: as §1

1309 = donor line of iPSC-derived cardiomyocytes; experiment: as above
In short: as §1

11235 = donor line of iPSC-derived cardiomyocytes; experiment: as above
In short: as §1

1118 = donor line of iPSC-derived cardiomyocytes; experiment: as above
In short: as §1

30171 = donor line of iPSC-derived cardiomyocytes; experiment: as above
In short: as §1

1518 [7] = experiment: as above
In short: as §1

1392 [8] = experiment: as above
In short: as §1

1083 = donor line of iPSC-derived cardiomyocytes; experiment: as above
In short: as §1

1531 = donor line of iPSC-derived cardiomyocytes; experiment: as above
In short: as §1

1368 = donor line of iPSC-derived cardiomyocytes; experiment: as above
In short: as §1

1535 [9] = experiment: as above
In short: as §1

1565 [10] = experiment: as above
In short: as §1

O=S(=O)(O)C(F)(F)C(F)(F)C(F)(F)C(F)(F)C(F)(F)C(F)(F)F [Perfluorohexanesulfonic_acid]
POD vs vehicle 1516 [1]: 17.6 µM | POD vs vehicle 1518 [2]: > 100 µM | POD vs vehicle 1392 [3]: > 100 µM | POD vs vehicle 1535 [4]: 43.4 µM | POD vs vehicle 1565 [5]: 81.7 µM | POD vs vehicle 1434: > 100 µM | POD vs vehicle 1516 [6]: > 100 µM | POD vs vehicle 20084: > 100 µM | POD vs vehicle 20032: > 100 µM | POD vs vehicle 1309: > 100 µM | POD vs vehicle 11235: > 100 µM | POD vs vehicle 1118: > 100 µM | POD vs vehicle 30171: > 100 µM | POD vs vehicle 1518 [7]: > 100 µM | POD vs vehicle 1392 [8]: > 100 µM | POD vs vehicle 1083: > 100 µM | POD vs vehicle 1531: > 100 µM | POD vs vehicle 1368: > 100 µM | POD vs vehicle 1535 [9]: > 100 µM | POD vs vehicle 1565 [10]: > 100 µM

NC(O)(C(F)(F)F)C(F)(F)F [2-Aminohexafluoropropan-2-ol]
POD vs vehicle 1516 [1]: 22.6 µM | POD vs vehicle 1518 [2]: > 100 µM | POD vs vehicle 1392 [3]: > 100 µM | POD vs vehicle 1535 [4]: 83.8 µM | POD vs vehicle 1565 [5]: > 100 µM | POD vs vehicle 1434: > 100 µM | POD vs vehicle 1516 [6]: > 100 µM | POD vs vehicle 20084: > 100 µM | POD vs vehicle 20032: > 100 µM | POD vs vehicle 1309: > 100 µM | POD vs vehicle 11235: > 100 µM | POD vs vehicle 1118: > 100 µM | POD vs vehicle 30171: > 100 µM | POD vs vehicle 1518 [7]: > 100 µM | POD vs vehicle 1392 [8]: > 100 µM | POD vs vehicle 1083: > 100 µM | POD vs vehicle 1531: > 100 µM | POD vs vehicle 1368: > 100 µM | POD vs vehicle 1535 [9]: > 100 µM | POD vs vehicle 1565 [10]: > 100 µM

O=C(O)C(F)(F)C(F)(F)F [Perfluoropropanoic_acid]
POD vs vehicle 1516 [1]: > 100 µM | POD vs vehicle 1518 [2]: > 100 µM | POD vs vehicle 1392 [3]: > 100 µM | POD vs vehicle 1535 [4]: > 100 µM | POD vs vehicle 1565 [5]: > 100 µM | POD vs vehicle 1434: > 100 µM | POD vs vehicle 1516 [6]: > 100 µM | POD vs vehicle 20084: > 100 µM | POD vs vehicle 20032: > 100 µM | POD vs vehicle 1309: > 100 µM | POD vs vehicle 11235: > 100 µM | POD vs vehicle 1118: > 100 µM | POD vs vehicle 30171: > 100 µM | POD vs vehicle 1518 [7]: > 100 µM | POD vs vehicle 1392 [8]: > 100 µM | POD vs vehicle 1083: > 100 µM | POD vs vehicle 1531: > 100 µM | POD vs vehicle 1368: > 100 µM | POD vs vehicle 1535 [9]: > 100 µM | POD vs vehicle 1565 [10]: > 100 µM

O=C(O)CCC(F)(F)C(F)(F)C(F)(F)C(F)(F)C(F)(F)C(F)(F)C(F)(F)F [3-Perfluoroheptylpropanoic_acid]
POD vs vehicle 1516 [1]: 56.9 µM | POD vs vehicle 1518 [2]: > 100 µM | POD vs vehicle 1392 [3]: > 100 µM | POD vs vehicle 1535 [4]: > 100 µM | POD vs vehicle 1565 [5]: > 100 µM | POD vs vehicle 1434: > 100 µM | POD vs vehicle 1516 [6]: > 100 µM | POD vs vehicle 20084: > 100 µM | POD vs vehicle 20032: > 100 µM | POD vs vehicle 1309: > 100 µM | POD vs vehicle 11235: > 100 µM | POD vs vehicle 1118: > 100 µM | POD vs vehicle 30171: > 100 µM | POD vs vehicle 1518 [7]: > 100 µM | POD vs vehicle 1392 [8]: > 100 µM | POD vs vehicle 1083: > 100 µM | POD vs vehicle 1531: > 100 µM | POD vs vehicle 1368: > 100 µM | POD vs vehicle 1535 [9]: > 100 µM | POD vs vehicle 1565 [10]: > 100 µM

NC(=O)C(F)(F)C(F)(F)C(F)(F)C(F)(F)F [Nonafluoropentanamide]
POD vs vehicle 1516 [1]: > 100 µM | POD vs vehicle 1518 [2]: > 100 µM | POD vs vehicle 1392 [3]: > 100 µM | POD vs vehicle 1535 [4]: > 100 µM | POD vs vehicle 1565 [5]: > 100 µM | POD vs vehicle 1434: > 100 µM | POD vs vehicle 1516 [6]: > 100 µM | POD vs vehicle 20084: > 100 µM | POD vs vehicle 20032: > 100 µM | POD vs vehicle 1309: > 100 µM | POD vs vehicle 11235: > 100 µM | POD vs vehicle 1118: > 100 µM | POD vs vehicle 30171: > 100 µM | POD vs vehicle 1518 [7]: > 100 µM | POD vs vehicle 1392 [8]: > 100 µM | POD vs vehicle 1083: > 100 µM | POD vs vehicle 1531: > 100 µM | POD vs vehicle 1368: > 100 µM | POD vs vehicle 1535 [9]: > 100 µM | POD vs vehicle 1565 [10]: > 100 µM

O=S(=O)(OCC(F)(F)F)C(F)(F)C(F)(F)C(F)(F)C(F)(F)F [2,2,2-Trifluoroethyl_perfluorobutanesulfonate]
POD vs vehicle 1516 [1]: > 100 µM | POD vs vehicle 1518 [2]: > 100 µM | POD vs vehicle 1392 [3]: > 100 µM | POD vs vehicle 1535 [4]: > 100 µM | POD vs vehicle 1565 [5]: > 100 µM | POD vs vehicle 1434: > 100 µM | POD vs vehicle 1516 [6]: > 100 µM | POD vs vehicle 20084: > 100 µM | POD vs vehicle 20032: > 100 µM | POD vs vehicle 1309: > 100 µM | POD vs vehicle 11235: > 100 µM | POD vs vehicle 1118: > 100 µM | POD vs vehicle 30171: > 100 µM | POD vs vehicle 1518 [7]: > 100 µM | POD vs vehicle 1392 [8]: > 100 µM | POD vs vehicle 1083: > 100 µM | POD vs vehicle 1531: > 100 µM | POD vs vehicle 1368: > 100 µM | POD vs vehicle 1535 [9]: > 100 µM | POD vs vehicle 1565 [10]: > 100 µM

Source: the supplement of paper PMC11368000
